Experimental data as given in US12509462B2, “3-(phenylsulfonyl)-[1,2,3]triazolo[1,5A]quinazolin-5(4H)-one derivatives” (BIOVERSYS AG, priority 2018, dated 2025).
Values after ≈ are worked out from the molar mass of the structure shown.

Tests used:
[1] = test system: HepG2; conditions: human, 48 h
[2] = test system: Staphylococcus aureus MRSA strain (USA300 isolate); test: Hemolysis Assay II (exotoxin-mediated lysis of rabbit red blood cells by culture filtrate); type: cell-based; conditions: Erythrocyte; for minimal effective concentration / IC95: 18 h; for minimal effective concentration: absorbance <2× the average of the complete inhibition control, read-out: Hemolysis assay II MEC (minimal effective concentration); for IC95: read-out: Hemolysis assay II IC95; for IC50: 18 h culture in CA-MHB, rabbit red blood cells
[3] = test system: MRSA (USA300 isolate); test: Hemolysis Assay I (exotoxin-mediated lysis of rabbit red blood cells by culture supernatant); type: cell-based, Staphylococcus aureus; conditions: Staphylococcus aureus, Erythrocyte, 30/10/3.3/1.1/0.37 μM compound, values at OD600 of 0.75
[4] = test system: psmα; type: cell-based, Staphylococcus aureus
[5] = biological target: AgrAc (C-terminal domain of AgrA) (Staphylococcus aureus, UniProt P0A0I7); type: binding; conditions: 15N-AgrAc 100 μM, 1.6 mM compound
AgrAc (C-terminal domain of AgrA), sequence (P0A0I7 143-238): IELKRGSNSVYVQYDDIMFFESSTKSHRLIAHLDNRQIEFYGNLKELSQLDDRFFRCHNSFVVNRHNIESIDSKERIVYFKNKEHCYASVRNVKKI
Description: 2D ^1H,^15N HSQC spectra were acquired at 298 K on a Bruker Avance IIIHD 600 MHz NMR spectrometer, equipped with a cryogenic triple resonance probe (Bruker, Karlsruhe, Germany). The proton chemical shifts were referenced using the methyl signal of sodium 3-trimethylsillyl-[2,2,3,3-d4]-propionate at 0 ppm. Spectra were processed with the Bruker TopSpin software package 3.5 and analyzed with the Sparky software. Assignments of AgrAc were deduced from the Biological Magnetic Resonance Bank (BMRB) entry 18598. Chemical shifts are reported in parts per million (δ) downfield from the internal standard tetramethylsilane (TMS). […]
For each sample tested, 400 μL of 15N-AgrAc @ […] in [50 mM NaPi pH6.3; 100 mM NaCl 3 mM THP; 5% D20; + TMSP] were mixed with 13 μL of the stock solution of the compound (dissolved in DMSO-d6). […] The samples were analysed on the 600 MHz spectrometer with the sample changer. […]
To produce ^15N-labeled C-terminal domain of AgrA (AgrAc), Escherichia coli BL21(DE3) cells were grown in a M9-based semi-rich medium: M9 medium supplemented with [^15N]—NH4Cl (1.5 g/liter), unlabeled D-glucose (4 g/liter), Isogro-^15N Powder-Growth medium (1 g/liter, 10%; Sigma-Aldrich). […] Elution of AgrAc was performed with a sharp gradient of imidazole (0-400 mM) and the fractions were analyzed by SDS-PAGE (4-20%). […] Protein concentration was estimated based on its UV absorbance at 280 nm.

[6] = test system: MRSA; test: MIC by broth microdilution in CA-MHB (CLSI); conditions: Staphylococcus aureus, 18 h, read-out: MIC on MRSA
[7] = test system: RNAIII; type: cell-based, Staphylococcus aureus; conditions: 10 μM compound, two hours, MRSA (USA300 isolate), normalized to rpoD
[8] = test system: S. aureus; conditions: cited from earlier work
[9] = test system: MRSA USA300 type strain; conditions: mice infected with a MRSA USA300 type strain, applied multiple times; cited from earlier work
[10] = test system: red blood cell (RBC); conditions: cited from earlier work
[11] = test system: S. aureus; conditions: cited from earlier work; remark: listed apart in the source

Structure (SMILES) | LD50 HepG2 [1] | minimal effective concentration [2] [µg/mL] | IC95 [2] [µg/mL] | IC50 [2] [µg/mL] | IC50 [3] [µM] | Downregulation of psmα expression at 10 μM [4] | Chemical shift perturbations upon binding to AgrAc [5] | MIC [6] [µM] | Downregulation of RNAIII expression at 10 μM [7] | Viability of S. aureus [8] | Abscess size and dermo necrosis [9] | Exotoxin-induced red blood cell (RBC) lysis [10] | Resistance after multiple passages [11]
Cc1ccc(S(=O)(=O)c2nnn3c2[nH]c(=O)c2ccccc23)c(C)c1 [Compound 34, 3-(2,4-dimethylphenyl)sulfonyl-4H-triazolo[1,5-a]quinazolin-5-one] | >=100 μM | 4 | 3.2 (≈ 9.03 µM) | 0.9 (≈ 2.54 µM) | 5 | ++ (++ downregulation>100-fold (2 log10)) | clearly show an interaction | ≥ 100 | ++ (++ downregulation>100-fold (2 log10)) | – | – | – | –
CC(C)c1ccc(S(=O)(=O)c2nnn3c2nc(O)c2ccccc23)cc1 [Savirin, reference compound] | >=100 μM | 8 | 7.8 (≈ 21.2 µM) | 2.6 (≈ 7.06 µM) | 15 | + (key: 0=downregulation between 0 and 10-fold; + downregulation>10-fold (1 log10); ++ downregulation>100-fold (2 log10)) | – | ≥ 100 | 0 (0=downregulation between 0 and 10-fold) | without affecting viability | significant reduction | inhibited | No resistance was developed
